In patent publication US10906909B2, “Treatment of cognitive and mood symptoms in neurodegenerative and neuropsychiatric disorders with ALPHA5-containing GABAA receptor agonists” (UWM Research Foundation, Inc., priority 2016, dated 2021):
Entries after “also recorded” stand apart in the source; their conditions may differ.

Assays:
[1] = system: HEK293; test: Cytotoxicity assay (CellTiter-Glo), HEK293; assay type: cell-based, human; details: 48 hours incubation
Protocol: Human liver hepatocellular carcinoma (HEPG2) and human embryonic kidney 293 (HEK293) cell lines were purchased (ATCC) and cultured in 75 cm2 flasks (CellStar). Cells were grown in DMEM/High Glucose (Hyclone, #SH3024301) media to which non-essential amino acids (Hyclone, #SH30238.01), 10 mM HEPES (Hyclone, #SH302237.01), 5×106 units of penicillin and streptomycin (Hyclone, #SV30010), and 10% of heat inactivated fetal bovine serum (Gibco, #10082147) were added. Cells were harvested using 0.05% Trypsin (Hyclone, #SH3023601), washed with PBS, and dispensed into sterile white, optical bottom 384-well plates (NUNC, #142762). After three hours, small molecule solutions were transferred with a Tecan Freedom EVO liquid handling system equipped with a 100 nL pin tool (V&P Scientific). The controls (E)-10-(bromotriphenylphosphoranyl)decyl 4-(4-(tert-butyl)phenyl)-4-oxobut-2-enoate (400 μM in DMSO, positive control) and DMSO (negative control). The cells were incubated for 48 hours followed by the addition of CellTiter-Glo™, a luminescence-based cell viability assay (Promega, Madison, Wis.). All luminescence readings were performed on a Tecan Infinite M1000 plate reader. The assay was carried out in quadruplet with three independent runs. The data was normalized to the controls and analyzed by nonlinear regression (GraphPad Prism).

[2] = Pharmacokinetics in mice (plasma, liver, brain); details: for concentration at 20 min: C57/BL6, mouse, ip, 10 mg/kg
[3] = system: 18 months-old mice; test: Y-maze alternation task, old mice; assay type: in vivo, mouse; details: 5 mg/kg i.p. 30 min before testing
Protocol: C57/B16 male mice males were ordered from Jackson Laboratories at 10 months-old and were kept in normal housing conditions (12 h light ON cycle starting at 7 am/water and food ad libitum) until they reached the age of 18 months. A younger cohort of 8 week old animals was used as controls for the experiment. Before testing animals were handled to reduce the anxiety-like response toward the experimenter. Normal aging induced-working memory deficits were assessed using the Y-maze test as described below.
Mice were first habituated to the Y-maze apparatus and distal cues during 2 consecutive days over a 10 min free exploration session (one session per day). The next day, animals performed a training session consisting in seven successive trials separated by a 30 s inter-trial interval (ITI); during this training session, mice were familiarized with the experimental procedure (opening and closing of the doors and confinement into the goal arms). […] Then, the door was opened and the mouse was allowed to enter freely one of the two goal arms; the chosen arm was closed and the choice was recorded. […]
The same general procedure used in the training session was implemented 24 h later, except that the ITI was lengthened to 90 s. […] The mean alternation rate was calculated and was expressed in percentage (number of alternation done by the animal/total number of alternation possible×100)±SEM. […]

[4] = system: rats; test: Social novelty discrimination (SND); assay type: in vivo, rat; details: 10 mg/kg
Protocol: The SND test compares the social investigation times of an adult rat with a familiar and a novel juvenile rat. Testing consisted of two consecutive juvenile presentations periods to an adult subject: period 1 (P1) and period 2 (P2). At the beginning of P1, one juvenile was placed into the adult home cage and the time spent by the adult investigating the juvenile (anogenital sniffing, licking, close pursuing and pawing) was recorded manually for 5 min. During P2, the same juvenile and a second, novel juvenile were placed in the cage together with the adult, and the times spent by the adult investigating each juvenile were measured independently for 3 min. A different pair of juvenile rats was presented to each adult tested. Manual scoring was conducted in a blinded manner. SND was deliberately impaired in control rats by the parametric manipulation applied, as there was 30 min delay between P1 and P2, and their SND was expected to be low. The influence of MP-III-022 (1, 2.5 or 10 mg/kg) on the thus induced impairment in SND was examined. There were five groups of rats which received one of the following treatments 20 min before P1: solvent, 1.5 mg/kg diazepam and 1, 2.5 and 10 mg/kg MP-III-022. The amount of time investigating familiar (Tf) and novel (Tn) juvenile during P2 was manually scored, and discrimination indexes (Tn−Tf/Tn+Tf) was calculated. Total exploration time during P1 and P2 was also manually recorded.

Which “HEK293 LD50” value [1] does the source give for C#Cc1ccc2c(c1)C(c1ccccc1F)=N[C@@H](C)c1c(C(=O)N(C)C)ncn1-2 [GL-I-54, (S)-8-ethynyl-6-(2-fluorophenyl)-N,N,4-trimethyl-4H-benzo[f]imidazo[1,5-a][1,4]diazepine-3-carboxamide] here?
Its value is over 400 µM.

What about the “molar concentration range reached in mouse brain tissue” value (“molar concentration range reached” for short) ([2]; i.p. dosing at 3 mg/kg) of the same molecule?
The value was “high submicromolar to low micromolar values”.

Which “effect on age-induced working memory impairment (percent alternation rate, Y-maze)” value [3] does the source give for C#Cc1ccc2c(c1)C(c1ccccc1F)=N[C@H](C)c1c(C(=O)N(C)C)ncn1-2 [GL-II-73, (R)-8-ethynyl-6-(2-fluorophenyl)-N,N,4-trimethyl-4H-benzo[f]imidazo[1,5-a][1,4]diazepine-3-carboxam] here?
Its value is “significant reversal of age-induced impairment in working memory; also recorded: significant pro-cognitive effect”.

And the “HEK293 LD50” value [1]?
Its value is over 200 µM.

And the “molar concentration range reached” value ([2]; 10 mg/kg dose i.p.)?
The value was “micromolar range”.

For C#Cc1ccc2c(c1)C(c1ccccc1F)=N[C@H](C)c1c(C(=O)NCC)ncn1-2 [GL-II-74, (R)—N-ethyl-8-ethynyl-6-(2-fluorophenyl)-4-methyl-4H-benzo[f]imidazo[1,5-a][1,4]diazepine-3-carboxamide], which “molar concentration range reached” value ([2]; 10 mg/kg dose i.p.) is on record?
Its value is “micromolar range”.

For C#Cc1ccc2c(c1)C(c1ccccc1F)=N[C@H](C)c1c(C(=O)NC3CC3)ncn1-2 [GL-II-75, (R)—N-cyclopropyl-8-ethynyl-6-(2-fluorophenyl)-4-methyl-4H-benzo[f]imidazo[1,5-a][1,4]diazepine-3-carboxamide], which “effect on age-induced working memory impairment (percent alternation rate, Y-maze)” value [3] is on record?
The value was “significant reversal of age-induced impairment in working memory; also recorded: significant pro-cognitive effect”.

What about the “molar concentration range reached” value ([2]; 10 mg/kg dose i.p.) of the same molecule?
Its value is “micromolar range”.

With C#Cc1ccc2c(c1)C(c1ccccc1F)=N[C@H](C)c1c(C(=O)N3CCCC3)ncn1-2 [GL-II-76, (R)-(8-ethynyl-6-(2-fluorophenyl)-4-methyl-4H-benzo[f]imidazo[1,5-a][1,4]diazepin-3-yl)(pyrrolidin-1-yl)methanone] as the molecule, how does the “HEK293 LD50” value [1] read?
Its value is over 100 µM.

What about the concentration at 20 min ([2]; brain) of the same molecule?
The concentration at 20 min was 204 ± 101 ng/g.

And the concentration at 20 min ([2]; liver)?
The concentration at 20 min was 4360 ng/g.

What about the concentration at 20 min ([2]; plasma) of the same molecule?
Its concentration at 20 min is 0.605 ± 0.198 µg/mL.

What about the brain penetrance ([2]; mice and rats) of the same molecule?
The brain penetrance was “brain-penetrant at the exception of GI-II-76”.

And the “brain concentrations, suitability for CNS-active drug” value ([2]; pilot cassette study, mice and rats)?
Its value is “suboptimal”.

For C#Cc1ccc2c(c1)C(c1ccccc1F)=N[C@H](C)c1c(C(=O)NC)ncn1-2 [MP-III-022], which “discrimination index (social novelty discrimination)” value ([4]; 20 min before P1, one-sample t-test vs zero) is on record?
Its value is “significant differences from zero”.

And the “time exploring the familiar and the novel juvenile rat during P2” value ([4]; 20 min before P1, paired t-test)?
Its value is “spent significantly more time in exploring the new rat”.

What about the “HEK293 LD50” value [1] of the same molecule?
The value was over 100 µM.
